Source: patent publication US9610232B2, “Use of sphinganine to improve the visual appearance of skin and hair” (EVONIK DEGUSSA GMBH, priority 2011, dated 2017)

What was measured:
[1] = test system: sebum production of the skin; test: Human sebum study: skin sebum on the forehead measured with Sebumeter SM 815; format: in vivo; details: lotion with 0.1% sphinganine, topical to forehead twice daily, 28 days (T4 vs T0); compared to the starting value and to the vehicle group; 14 female subjects
Protocol: The panel comprised 30 female subjects aged 21-45 years, with 14 subjects applying a lotion containing 0.1% sphinganine and 16 subjects applying a lotion without sphinganine (vehicle control).
The application phase comprised 28 days, with application taking place twice daily (morning and evening) to the forehead.
The skin sebum was measured using a Sebumeter SM 815® from Courage+Khazaka electronic GmbH, Cologne, Germany. The measurements were taken in the middle of the forehead in the region of the glabella lines. The average value calculated from the individual values of three repeat measurements was registered. On the evening before each measurement no formulation was applied. Three hours before the measurement, the forehead was cleaned using a wipe (babylove sensitive wipes, dm-drogerie markt, Karlsruhe, Germany). The measurements were carried out in each case at a time of day defined individually for each subject in the period between 12:00 and 14:30 hours. The sebum value at time point T0 before the application phase and T4 after 28 days was determined.

stem cell markers = test: Gene expression studies in cell cultures; format: cell-based
From the text: A further subject matter of the present invention is consequently the cosmetic use of sphinganine for modulating stem cell markers.

hair grease production = test: Human scalp health study: hair tonic applied to scalp, greasiness by subjective evaluation and Sebutape method; format: in vivo; details: hair tonic with 0.2% sphinganine, 3 mL to scalp twice daily, 4 months; vehicle control; 16 subjects per group
Protocol: The panel comprised 32 subjects (mixed male/female, minimum age 30, with a tendency for greasy scalp/greasy hair), with 16 subjects in each case applying a hair tonic with 0.2% sphinganine or without sphinganine (vehicle control). The application phase comprised 4 months, with the hair tonic being applied to the scalp twice daily (morning and evening) with the help of a pipette with a defined volume of 3 mL, and gently massaged in using the hands. The test parameters included the shine of the hair and the greasiness of the scalp. The greasiness of the scalp is carried out firstly by means of a subjective evaluation (self and expert estimation), and secondly by means of a “Sebutape” method in accordance with manufacturers instructions. Time points for carrying out the measurements were before the start of application, after two months and after four months.

CCCCCCCCCCCCCCC[C@@H](O)[C@@H](N)CO [sphinganine]
sebum production [1]: statistically significant reduction in sebum production | expression of stem cell markers (stem cell markers): beneficially modulated the expression of so-called stem cell markers | hair grease production (hair grease production): significant reduction in hair grease production
